Assays:
IGF1R tyrosine kinase = molecular target: T1, IGF1R tyrosine kinase (Homo sapiens, UniProt P08069); experiment: IGF1R tyrosine kinase assay (Kinase-Glo ATP depletion or PT66/PT100 AlphaScreen); settings: biochemical tyrosine kinase assay
T1 construct: 6×His- or GST-tagged kinase domain fragments of the corresponding RTKs expressed in baculovirus system; host or cells: baculovirus system
Summary of the method: (§1)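 Baculovirus-expressed His- or GST-tagged kinase domains with poly(Glu-Tyr) substrate, 10 μM ATP, pH 7.5 Tris with MgCl2/MnCl2. Kinase-Glo: 60 min at 37 °C, residual ATP by luminescence; AlphaScreen: 30 min at RT, then anti-phosphotyrosine beads 60 min. Eight concentrations, 1 nM to 20 μM; IC50 by nonlinear regression.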

Jak2 = molecular target: T2, Jak2 (Homo sapiens, UniProt O60674); experiment: Tyrosine kinase assay (Kinase-Glo or AlphaScreen), Jak2; settings: biochemical tyrosine kinase assay
T2 construct: 6×His- or GST-tagged kinase domain fragments of the corresponding RTKs expressed in baculovirus system; host or cells: baculovirus system
Summary of the method: as §1

H929 (multiple myeloma) = experiment: Cell proliferation inhibition, Cell Titer-Glo, H929; assay type: cell-based; settings: Homo sapiens, NCI-H929; cell proliferation assay, H929 cells
Summary of the method: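 Cells seeded at 2500-5000 per well with serially diluted compound for typically 3 days. Viable cells measured by ATP luminescence (Cell Titer-Glo); IC50 from proliferation-inhibition curves.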

[1] = tested on: CHO (chinese hamster ovary); experiment: Cell proliferation inhibition, Cell Titer-Glo, CHO; assay type: cell-based; settings: Cricetulus griseus; cell proliferation assay, CHO cells
Procedure: (§2) IGF1R and other tyrosine kinase inhibitors can inhibit the proliferation of certain cancer cell lines indicating their possible therapeutic utility for treating the corresponding cancer types. Cancer cell lines of interest and control normal lines, including CHO, HEK293, BA/F3, MM1, H929, COLO205, PC3, DU145, MCF7, Panc1, ACHN, Hep G2, H460, K562, TT, U87-G, CAOV-3, SK-MEL5, Karpas 299, are plated in white, clear-bottomed 384-well cell culture plates at 2500-5000 cells per well and supplied with dilutions of tested compounds After a desired period of time (typically 3 days), the number of viable cells is quantitated by using Cell Titer-Glo Luminescent Cell Viability Assay (Promega), a cell proliferation assay system based on detection of total amount of ATP present as a measure of cell metabolic activity. The plated cells are mixed with the Cell Titer-Glo developing reagent and counted in a luminescence multiwell plate reader according to the standard manufacturer's protocol to generate IC50 curves for cell proliferation inhibition.
(§3) IGF1R and other tyrosine kinase inhibitors can inhibit the proliferation of certain cancer cell lines indicating their possible therapeutic utility for treating the corresponding cancer types. Cancer cell lines of interest and control normal lines, including CHO, HEK293, BA/F3, COLO205, PC3, DU145, MCF7, Panc1, ACHN, Hep G2, H460, K562, TT, U87-MG, CAOV-3, SK-MEL5, Karpas 299 and human multiple myeloma cell lines H929, MM1s, MM1r, UTMC2, CPM2, KMS11, My5, KMS12PE, My7, JJN3, KMS18, U266, SKMM2, RPMI-8226 are plated in white, clear-bottomed 384-well cell culture plates at 2500-5000 cells per well and supplied with dilutions of tested compounds After a desired period of time (typically 3 days), the number of viable cells is quantitated by using Cell Titer-Glo Luminescent Cell Viability Assay (Promega), a cell proliferation assay system based on detection of total amount of ATP present as a measure of cell metabolic activity. The plated cells are mixed with the Cell Titer-Glo developing reagent and counted in a luminescence multiwell plate reader according to the standard manufacturer's protocol to generate IC50 curves for cell proliferation inhibition. Results are typically reported as percent of growth (% viability =(OD72h(compound)−ODday0))/(OD72h(no compound)−ODday0). Alternatively, viable cells are quantitated by using the conventional colorimetric MTT assay. The MTT assay is based on the cleavage of the yellow tetrazolium salt MTT to purple formazan crystal by metabolic active cells. The formazan is then solubilized, and the concentration determined by optical density at 570 nm. The cells plated and incubated with a compound as described above are supplemented with the solution of MTT and incubated for 2-3 hours. The growth medium is removed and dimethyl sulfoxide is added into each well to dissolve the formazan. The absorbance is measured on an ELISA plate reader with a test wavelength of 570 nm and a background subtraction wavelength of 630 nm to obtain sample signal (OD570-OD630). […] The results are reported in terms of IC50 value for a particular compound and a cell line in the standard 3-day proliferation assay using Cell Titer-Glo. […] The results are reported in terms of IC50 value for a particular compound and a cell line in the standard 3-day proliferation assay using MTT assay.

[2] = tested on: HEK293 (human normal embryonic kidney); experiment: Cell proliferation inhibition, Cell Titer-Glo, HEK293; assay type: cell-based; settings: cell proliferation assay, HEK293 cells, read-out: HEK 293 IC50
Procedure: as §2, §3

InsR = molecular target: T3, InsR (Homo sapiens, UniProt P06213); experiment: Tyrosine kinase assay (Kinase-Glo or AlphaScreen), InsR; settings: biochemical tyrosine kinase assay
T3 construct: 6×His- or GST-tagged kinase domain fragments of the corresponding RTKs expressed in baculovirus system; host or cells: baculovirus system
Summary of the method: as §1

Alk = molecular target: T4, Alk (Homo sapiens, UniProt Q9UM73); experiment: Tyrosine kinase assay (Kinase-Glo or AlphaScreen), Alk; settings: biochemical tyrosine kinase assay
T4 construct: 6×His- or GST-tagged kinase domain fragments of the corresponding RTKs expressed in baculovirus system; host or cells: baculovirus system
Summary of the method: as §1

K562 = experiment: Cell proliferation inhibition, Cell Titer-Glo, K562; assay type: cell-based; settings: Homo sapiens; cell proliferation assay, K562 cells
Summary of the method: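 K562 cells were seeded at 2500-5000 cells per well in white, clear-bottomed 384-well culture plates and treated with dilutions of test compounds for typically 3 days. Viable cells were quantified with the Cell Titer-Glo Luminescent Cell Viability Assay (Promega), which measures total ATP, read on a luminescence plate reader to derive IC50 values for proliferation inhibition.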

Karpas-299 = experiment: Cell proliferation inhibition, Cell Titer-Glo, Karpas-299; assay type: cell-based; settings: Homo sapiens; cell proliferation assay, Karpas-299 cells
Summary of the method: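 Karpas 299 cells were seeded into white, clear-bottomed 384-well culture plates at 2500-5000 cells per well and exposed to serial dilutions of test compounds for about 3 days. Viable cell numbers were then measured with the Cell Titer-Glo Luminescent Cell Viability Assay (Promega), which detects total ATP, and IC50 values for proliferation inhibition were derived.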

Ba/F3 = experiment: Cell proliferation inhibition, Cell Titer-Glo, Ba/F3; assay type: cell-based; settings: Mus musculus, BaF3; cell proliferation assay, Ba/F3 cells
Summary of the method: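 Ba/F3 cells were seeded at 2500-5000 cells per well in white, clear-bottomed 384-well culture plates and exposed to serial dilutions of test compounds for 3 days. Cell Titer-Glo Luminescent Cell Viability Assay (Promega) reagent, which measures total ATP as an indicator of metabolic activity, was added. Luminescence was read on a multiwell plate reader to derive IC50 values for inhibition of proliferation.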

T3 sequence (P06213 1023-1298 limits assumed, species assumed): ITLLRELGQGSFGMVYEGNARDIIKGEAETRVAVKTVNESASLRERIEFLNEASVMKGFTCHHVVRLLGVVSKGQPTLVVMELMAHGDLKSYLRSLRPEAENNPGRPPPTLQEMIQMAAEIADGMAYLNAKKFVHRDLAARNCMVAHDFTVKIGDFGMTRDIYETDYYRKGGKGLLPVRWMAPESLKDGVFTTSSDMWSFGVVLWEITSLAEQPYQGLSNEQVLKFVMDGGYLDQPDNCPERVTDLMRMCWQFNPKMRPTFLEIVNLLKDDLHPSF
T2 sequence (O60674 849-1124 limits assumed, species assumed): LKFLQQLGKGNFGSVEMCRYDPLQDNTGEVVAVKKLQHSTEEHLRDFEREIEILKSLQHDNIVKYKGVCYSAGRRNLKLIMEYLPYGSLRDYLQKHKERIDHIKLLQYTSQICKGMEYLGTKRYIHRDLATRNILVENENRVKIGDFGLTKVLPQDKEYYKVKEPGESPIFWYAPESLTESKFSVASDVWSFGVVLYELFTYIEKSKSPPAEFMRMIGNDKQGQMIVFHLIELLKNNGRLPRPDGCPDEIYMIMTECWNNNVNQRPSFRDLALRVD
T4 sequence (Q9UM73 1116-1392 limits assumed, species assumed): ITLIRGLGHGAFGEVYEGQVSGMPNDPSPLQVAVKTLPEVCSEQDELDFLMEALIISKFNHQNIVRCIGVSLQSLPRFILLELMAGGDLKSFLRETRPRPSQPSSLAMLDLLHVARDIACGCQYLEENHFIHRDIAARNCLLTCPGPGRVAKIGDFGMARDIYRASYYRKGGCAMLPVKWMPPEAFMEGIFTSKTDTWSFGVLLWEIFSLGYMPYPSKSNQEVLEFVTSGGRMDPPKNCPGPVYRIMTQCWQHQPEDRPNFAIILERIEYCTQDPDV
T1 sequence (P08069 999-1274 limits assumed): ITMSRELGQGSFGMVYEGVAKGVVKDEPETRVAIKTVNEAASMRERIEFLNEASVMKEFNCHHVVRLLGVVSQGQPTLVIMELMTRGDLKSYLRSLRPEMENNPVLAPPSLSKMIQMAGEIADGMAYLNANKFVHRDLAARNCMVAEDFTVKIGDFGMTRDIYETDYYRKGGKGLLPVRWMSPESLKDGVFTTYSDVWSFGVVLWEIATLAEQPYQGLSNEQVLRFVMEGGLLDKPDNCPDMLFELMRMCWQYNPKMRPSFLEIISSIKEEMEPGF

Row | Structure (SMILES) | IC50 (IGF1R tyrosine kinase) | IC50 (Jak2) | IC50 (H929 (multiple myeloma)) | IC50 (InsR) | IC50 (Alk) | IC50 (K562) | IC50 (Karpas-299) | IC50 (Ba/F3) | IC50 [1] | IC50 [2]
1 | CN1CCC(N2Cc3cc4[nH]c(-c5c(NC[C@@H](O)COc6ccccc6Br)cc[nH]c5=O)nc4cc3C2=O)CC1 [compound 167] | < 0.5 µM | < 0.5 µM | 0.5 to 5 µM | < 0.5 µM | 0.5 to 5 µM | – | – | – | > 15 µM | > 15 µM
2 | CCc1cc2c(cc1OC[C@H](O)CNc1cc[nH]c(=O)c1-c1nc3cc4c(cc3[nH]1)C(=O)N(C1CCN(C)CC1)C4)OCO2 [compound 156] | < 0.5 µM | < 0.5 µM | 5 to 15 µM | < 0.5 µM | 0.5 to 5 µM | – | – | – | > 15 µM | –
3 | CN1CCC(N2Cc3cc4[nH]c(-c5c(NC[C@@H](O)COc6c(F)cc(F)cc6Br)cc[nH]c5=O)nc4cc3C2=O)CC1 [compound 164] | < 0.5 µM | < 0.5 µM | 5 to 15 µM | < 0.5 µM | 0.5 to 5 µM | – | – | – | 5 to 15 µM | 5 to 15 µM
4 | CN1CCC(N2Cc3cc4nc(-c5c(N[C@@H](CO)Cc6ccccc6)cc[nH]c5=O)[nH]c4cc3C2=O)CC1 [compound 160] | 0.5 to 5 µM | 0.5 to 5 µM | 5 to 15 µM | < 0.5 µM | 0.5 to 5 µM | – | – | – | > 15 µM | –
5 | CN1CCC(N2Cc3cc4[nH]c(-c5c(NC[C@@H](O)COc6ccc7c(c6Cl)OCO7)cc[nH]c5=O)nc4cc3C2=O)CC1 [compound 163] | < 0.5 µM | < 0.5 µM | 5 to 15 µM | < 0.5 µM | 0.5 to 5 µM | – | – | – | > 15 µM | 5 to 15 µM
6 | CCc1c(OC[C@H](O)CNc2cc[nH]c(=O)c2-c2nc3cc4c(cc3[nH]2)CN(C2CCN(C)CC2)C4=O)ccc2c1OCO2 [compound 162] | < 0.5 µM | < 0.5 µM | 5 to 15 µM | < 0.5 µM | 0.5 to 5 µM | – | – | – | 5 to 15 µM | 5 to 15 µM
7 | CN1CCC(N2Cc3cc4[nH]c(-c5c(NC[C@@H](O)COc6cc(F)c(F)cc6Br)cc[nH]c5=O)nc4cc3C2=O)CC1 [compound 168] | < 0.5 µM | < 0.5 µM | 5 to 15 µM | < 0.5 µM | 0.5 to 5 µM | – | – | – | > 15 µM | > 15 µM
8 | CN1CCC(N2Cc3cc4nc(-c5c(NC[C@@H](O)COc6cccc(C(F)(F)F)c6Cl)cc[nH]c5=O)[nH]c4cc3C2=O)CC1 [compound 154] | < 0.5 µM | < 0.5 µM | 5 to 15 µM | < 0.5 µM | > 15 µM | – | – | – | > 15 µM | –
9 | CN1CCC(N2Cc3cc4nc(-c5c(NC[C@@H](O)COc6ccc(F)cc6F)cc[nH]c5=O)[nH]c4cc3C2=O)CC1 [compound 148] | < 0.5 µM | < 0.5 µM | 5 to 15 µM | < 0.5 µM | 0.5 to 5 µM | – | – | – | 5 to 15 µM | > 15 µM
10 | Cc1c(OC[C@H](O)CNc2cc[nH]c(=O)c2-c2nc3cc4c(cc3[nH]2)CN(C2CCN(C)CC2)C4=O)ccc2c1OCO2 [compound 169] | < 0.5 µM | < 0.5 µM | > 15 µM | < 0.5 µM | 0.5 to 5 µM | – | – | – | > 15 µM | > 15 µM
11 | CN1CCC(N2Cc3cc4nc(-c5c(NC[C@@H](O)COc6cc(C(F)(F)F)ccc6Cl)cc[nH]c5=O)[nH]c4cc3C2=O)CC1 [compound 151] | < 0.5 µM | < 0.5 µM | 5 to 15 µM | < 0.5 µM | 5 to 15 µM | – | – | – | > 15 µM | –
12 | CN1CCC(N2Cc3cc4nc(-c5c(NC[C@@H](O)COc6c(F)cccc6Cl)cc[nH]c5=O)[nH]c4cc3C2=O)CC1 [compound 153] | < 0.5 µM | < 0.5 µM | 5 to 15 µM | < 0.5 µM | 5 to 15 µM | – | – | – | > 15 µM | –

Second part, led by results:

Row | IC50 (IGF1R tyrosine kinase) | IC50 (Jak2) | IC50 (H929 (multiple myeloma)) | IC50 (InsR) | IC50 (Alk) | IC50 (K562) | IC50 (Karpas-299) | IC50 (Ba/F3) | Structure (SMILES) | IC50 [1] | IC50 [2]
13 | < 0.5 µM | < 0.5 µM | 0.5 to 5 µM | < 0.5 µM | < 0.5 µM | – | – | – | CN1CCC(N2Cc3cc4nc(-c5c(NC[C@@H](O)COc6ccccc6C(F)(F)F)cc[nH]c5=O)[nH]c4cc3C2=O)CC1 [compound 149] | > 15 µM | 5 to 15 µM
14 | < 0.5 µM | < 0.5 µM | 0.5 to 5 µM | < 0.5 µM | 0.5 to 5 µM | – | – | – | Cc1ccc(OC[C@H](O)CNc2cc[nH]c(=O)c2-c2nc3cc4c(cc3[nH]2)CN(C2CCN(C)CC2)C4=O)c(Br)c1 [compound 166] | 5 to 15 µM | > 15 µM
15 | < 0.5 µM | 0.5 to 5 µM | 5 to 15 µM | < 0.5 µM | 0.5 to 5 µM | > 15 µM | 5 to 15 µM | > 15 µM | CC(=N)N1CCC(N2C(=O)c3cc4nc(-c5c(NC[C@@H](O)COc6ccc(C)cc6C)cc[nH]c5=O)[nH]c4cc3C2=O)CC1 [compound 161] | > 15 µM | > 15 µM
16 | < 0.5 µM | < 0.5 µM | 5 to 15 µM | < 0.5 µM | 0.5 to 5 µM | – | – | – | COc1ccc(OC[C@H](O)CNc2cc[nH]c(=O)c2-c2nc3cc4c(cc3[nH]2)CN(C2CCN(C)CC2)C4=O)c(Cl)c1 [compound 146] | > 15 µM | > 15 µM
17 | < 0.5 µM | < 0.5 µM | 0.5 to 5 µM | < 0.5 µM | 0.5 to 5 µM | – | – | – | CN1CCC(N2Cc3cc4[nH]c(-c5c(NC[C@@H](O)COc6ccc(F)cc6Br)cc[nH]c5=O)nc4cc3C2=O)CC1 [compound 165] | 5 to 15 µM | > 15 µM
18 | < 0.5 µM | < 0.5 µM | 0.5 to 5 µM | < 0.5 µM | 5 to 15 µM | – | – | – | Cc1ccc(F)c(OC[C@H](O)CNc2cc[nH]c(=O)c2-c2nc3cc4c(cc3[nH]2)C(=O)N(C2CCN(C)CC2)C4)c1Cl [compound 147] | > 15 µM | > 15 µM

Reference: US8063225B2, “Tricyclic compound derivatives useful in the treatment of neoplastic diseases, inflammatory disorders and immunomodulatory disorders” (Chembridge Corporation, priority 2006, dated 2011)
